# Tests used:
# [1] = tested on: rice; test: Test B flood; format: in vivo, Oryza sativa; conditions: 250 g ai/ha, visual rating on 0 to 100 scale (0 no effect, 100 complete control), 13 to 15 days
# In short: (§1)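 Each compound is applied to the floodwater of pots holding 2-leaf seedlings, water standing 3 cm over the soil throughout. Plants stay in a greenhouse 13 to 15 days before visual scoring against controls from 0 (no effect) to 100 (complete control).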
# [2] = tested on: barnyardgrass; test: Test B flood; format: in vivo, Echinochloa crus-galli; conditions: 250 g ai/ha, visual rating on 0 to 100 scale (0 no effect, 100 complete control), 13 to 15 days
# In short: as §1
# [3] = tested on: blackgrass; test: Test C preemergence; format: in vivo, Alopecurus myosuroides; conditions: for Blackgrass plant response rating: preemergence
# In short: (§2)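 Visual rating, 0–100 scale (0 no effect, 100 complete control), vs untreated controls after 13–15 d greenhouse. Pre: seeds in loam/sand, treated at sowing. Post: plants in peat-based mix, 1- to 4-leaf (2–18 cm). Solvent + surfactant formulation, non-phytotoxic.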
# [4] = tested on: wheat; test: Test C preemergence; format: in vivo, Triticum aestivum; conditions: for Wheat plant response rating: preemergence
# In short: as §2
# [5] = tested on: lambsquarters; test: Test C preemergence; format: in vivo, Chenopodium album; conditions: for Lambsquarters plant response rating: preemergence
# In short: as §2
# [6] = tested on: nutsedge, yellow; test: Test C preemergence; format: in vivo, Cyperus esculentus; conditions: for Nutsedge, Yellow plant response rating: preemergence
# In short: as §2
# [7] = tested on: ryegrass, Italian; test: Test C postemergence; format: in vivo, Lolium multiflorum
# In short: as §2
# [8] = tested on: foxtail, giant; test: Test C postemergence; format: in vivo, Setaria faberii
# In short: as §2
# [9] = tested on: johnsongrass; test: Test C postemergence; format: in vivo, Sorghum halepense
# In short: as §2
# [10] = tested on: morningglory; test: Test C postemergence; format: in vivo, Ipomoea coccinea
# In short: as §2
# [11] = tested on: nutsedge, yellow; test: Test C postemergence; format: in vivo, Cyperus esculentus
# In short: as §2
# [12] = tested on: pigweed; test: Test C postemergence; format: in vivo, Amaranthus retroflexus
# In short: as §2
# [13] = tested on: oat, wild; test: Test C postemergence; format: in vivo, Avena fatua
# In short: as §2
# [14] = 31 g ai/ha, visual rating, scale 0 to 100 (0 no effect, 100 complete control), 13 to 15 days
# [15] = 62 g ai/ha, scale 0 to 100 (0 no effect, 100 complete control), 13 to 15 days
# [16] = 125 g ai/ha, scale 0 to 100, 0 is no effect, 100 is complete control
# [17] = Postemergence, 31 g ai/ha, visually evaluated after 13 to 15 days
# [18] = postemergence, 62 g ai/ha, scale 0 to 100
# [19] = postemergence, 250 g ai/ha, scale 0 to 100 (0 no effect, 100 complete control)
# [20] = postemergence, 125 g ai/ha, scale 0 to 100, 0 no effect, 100 complete control
smiles,measurement,setting,value
CCc1cc(C(=O)NCC(F)(F)F)nn1Cc1nc(C(F)(F)F)nn1C [Compound 107],"Plant response rating, Rice",[1],30
same,"Plant response rating, Barnyardgrass",[2],40
same,"Plant response rating (scale of 0 to 100), Blackgrass","[3]; Preemergence, 250 g ai/ha",100
same,Blackgrass plant response rating,[3]; [14],95
same,Blackgrass plant response rating,[3]; [15],100
same,Blackgrass plant response rating,[3]; [16],100
same,"Plant response rating (scale of 0 to 100), Wheat","[4]; Preemergence, 250 g ai/ha",50
same,Wheat plant response rating,[4]; [14],5
same,Wheat plant response rating,[4]; [15],15
same,Wheat plant response rating,[4]; [16],50
same,"Plant response rating (scale of 0 to 100), Lambsquarters","[5]; Preemergence, 250 g ai/ha",100
same,Lambsquarters plant response rating,[5]; [14],100
same,Lambsquarters plant response rating,[5]; [15],100
same,Lambsquarters plant response rating,[5]; [16],100
same,"Plant response rating (scale of 0 to 100), Nutsedge, Yellow","[6]; Preemergence, 250 g ai/ha",100
same,"Nutsedge, Yellow plant response rating",[6]; [14],15
same,"Nutsedge, Yellow plant response rating",[6]; [15],60
same,"Nutsedge, Yellow plant response rating",[6]; [16],85
same,"Plant response rating (scale of 0 to 100 where 0 is no effect and 100 is complete control), Ryegrass, Italian",[7]; [17],0
same,"Ryegrass, Italian plant response rating",[7]; [18],5
same,"Plant response rating, Ryegrass, Italian",[7]; [19],5
same,"Plant response rating, Ryegrass, Italian",[7]; [20],5
same,"Plant response rating (scale of 0 to 100 where 0 is no effect and 100 is complete control), Foxtail, Giant",[8]; [17],10
same,"Foxtail, Giant plant response rating",[8]; [18],15
same,"Plant response rating, Foxtail, Giant",[8]; [19],60
same,"Plant response rating, Foxtail, Giant",[8]; [20],55
same,"Plant response rating (scale of 0 to 100 where 0 is no effect and 100 is complete control), Johnsongrass",[9]; [17],0
same,Johnsongrass plant response rating,[9]; [18],0
same,"Plant response rating, Johnsongrass",[9]; [19],70
same,"Plant response rating, Johnsongrass",[9]; [20],5
same,"Plant response rating (scale of 0 to 100 where 0 is no effect and 100 is complete control), Morningglory",[10]; [17],75
same,Morningglory plant response rating,[10]; [18],80
same,"Plant response rating, Morningglory",[10]; [19],80
same,"Plant response rating, Morningglory",[10]; [20],80
same,"Plant response rating (scale of 0 to 100 where 0 is no effect and 100 is complete control), Nutsedge, Yellow",[11]; [17],0
same,"Nutsedge, Yellow plant response rating",[11]; [18],0
same,"Plant response rating, Nutsedge, Yellow",[11]; [19],40
same,"Plant response rating, Nutsedge, Yellow",[11]; [20],5
same,"Plant response rating (scale of 0 to 100 where 0 is no effect and 100 is complete control), Pigweed",[12]; [17],50
same,Pigweed plant response rating,[12]; [18],85
same,"Plant response rating, Pigweed",[12]; [19],85
same,"Plant response rating, Pigweed",[12]; [20],85
same,"Plant response rating (scale of 0 to 100 where 0 is no effect and 100 is complete control), Oat, Wild",[13]; [17],5
same,"Oat, Wild plant response rating",[13]; [18],5
same,"Plant response rating, Oat, Wild",[13]; [19],40
same,"Plant response rating, Oat, Wild",[13]; [20],5
